Assay results reported in PubChem BioAssay (NCI).
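Compound exposure: 48 hours, 5 concentrations, 96-well plates. TGI is the concentration that stops growth completely.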

What was measured:
Assay in all cases: DTP human tumour cell line panel, 48 h
786-0 renal = tested on: 786-0 renal
A498 renal = tested on: A498 renal
A549 NSCLC = tested on: A549 NSCLC
ACHN renal = tested on: ACHN renal
CAKI-1 renal = tested on: CAKI-1 renal
CCRF-CEM leukemia = tested on: CCRF-CEM leukemia
COLO 205 colon = tested on: COLO 205 colon
DU-145 prostate = tested on: DU-145 prostate
EKVX NSCLC = tested on: EKVX NSCLC
HCC-2998 colon = tested on: HCC-2998 colon
HCT-116 colon = tested on: HCT-116 colon
HCT-15 colon = tested on: HCT-15 colon
HL-60(TB) leukemia = tested on: HL-60(TB) leukemia
HOP-62 NSCLC = tested on: HOP-62 NSCLC
HOP-92 NSCLC = tested on: HOP-92 NSCLC
IGROV1 ovarian = tested on: IGROV1 ovarian
K-562 leukemia = tested on: K-562 leukemia
KM12 colon = tested on: KM12 colon
LOX IMVI melanoma = tested on: LOX IMVI melanoma
M14 melanoma = tested on: M14 melanoma
MALME-3M melanoma = tested on: MALME-3M melanoma
MCF7 breast = tested on: MCF7 breast
MDA-MB-231 breast = tested on: MDA-MB-231 breast
MDA-MB-435 = tested on: MDA-MB-435
MDA-N = tested on: MDA-N
MOLT-4 leukemia = tested on: MOLT-4 leukemia
NCI-H226 lung = tested on: NCI-H226 lung
NCI-H23 lung = tested on: NCI-H23 lung
NCI-H522 lung = tested on: NCI-H522 lung
NCI/ADR-RES ovarian = tested on: NCI/ADR-RES ovarian
OVCAR-3 ovarian = tested on: OVCAR-3 ovarian
OVCAR-4 ovarian = tested on: OVCAR-4 ovarian
OVCAR-5 ovarian = tested on: OVCAR-5 ovarian
OVCAR-8 ovarian = tested on: OVCAR-8 ovarian
PC-3 prostate = tested on: PC-3 prostate
RPMI-8226 leukemia = tested on: RPMI-8226 leukemia
RXF 393 renal = tested on: RXF 393 renal
SF-295 CNS = tested on: SF-295 CNS
SF-539 CNS = tested on: SF-539 CNS
SK-MEL-2 melanoma = tested on: SK-MEL-2 melanoma
SK-MEL-28 melanoma = tested on: SK-MEL-28 melanoma
SK-MEL-5 melanoma = tested on: SK-MEL-5 melanoma
SK-OV-3 ovarian = tested on: SK-OV-3 ovarian
SN12C renal = tested on: SN12C renal
SNB-19 CNS = tested on: SNB-19 CNS
SNB-75 CNS = tested on: SNB-75 CNS
SW-620 colon = tested on: SW-620 colon
T-47D breast = tested on: T-47D breast
TK-10 renal = tested on: TK-10 renal
U251 CNS = tested on: U251 CNS
UACC-257 melanoma = tested on: UACC-257 melanoma
UACC-62 melanoma = tested on: UACC-62 melanoma
UO-31 renal = tested on: UO-31 renal
BT-549 breast = tested on: BT-549 breast
HS 578T breast = tested on: HS 578T breast
HT29 colon = tested on: HT29 colon
NCI-H460 lung = tested on: NCI-H460 lung
SF-268 CNS = tested on: SF-268 CNS

COc1ccc(-n2c(=O)n(-c3ccccc3)c(=O)n2-c2ccc(OC)cc2)cc1
TGI (786-0 renal): > 100000 nM | TGI (A498 renal): > 100000 nM | TGI (A549 NSCLC): > 100000 nM | TGI (ACHN renal): > 100000 nM | TGI (CAKI-1 renal): 7590 nM | TGI (CCRF-CEM leukemia): > 100000 nM | TGI (COLO 205 colon): > 100000 nM | TGI (DU-145 prostate): > 100000 nM | TGI (EKVX NSCLC): > 100000 nM | TGI (HCC-2998 colon): > 100000 nM | TGI (HCT-116 colon): > 100000 nM | TGI (HCT-15 colon): > 100000 nM | TGI (HL-60(TB) leukemia): > 100000 nM | TGI (HOP-62 NSCLC): > 100000 nM | TGI (HOP-92 NSCLC): > 100000 nM | TGI (IGROV1 ovarian): > 100000 nM | TGI (K-562 leukemia): > 100000 nM | TGI (KM12 colon): > 100000 nM | TGI (LOX IMVI melanoma): > 100000 nM | TGI (M14 melanoma): > 100000 nM | TGI (MALME-3M melanoma): > 100000 nM | TGI (MCF7 breast): > 100000 nM | TGI (MDA-MB-231 breast): > 100000 nM | TGI (MDA-MB-435): > 100000 nM | TGI (MDA-N): > 100000 nM | TGI (MOLT-4 leukemia): > 100000 nM | TGI (NCI-H226 lung): > 100000 nM | TGI (NCI-H23 lung): > 100000 nM | TGI (NCI-H522 lung): > 100000 nM | TGI (NCI/ADR-RES ovarian): > 100000 nM | TGI (OVCAR-3 ovarian): > 100000 nM | TGI (OVCAR-4 ovarian): > 100000 nM | TGI (OVCAR-5 ovarian): > 100000 nM | TGI (OVCAR-8 ovarian): > 100000 nM | TGI (PC-3 prostate): > 100000 nM | TGI (RPMI-8226 leukemia): > 100000 nM | TGI (RXF 393 renal): > 100000 nM | TGI (SF-295 CNS): > 100000 nM | TGI (SF-539 CNS): > 100000 nM | TGI (SK-MEL-2 melanoma): > 100000 nM | TGI (SK-MEL-28 melanoma): > 100000 nM | TGI (SK-MEL-5 melanoma): > 100000 nM | TGI (SK-OV-3 ovarian): > 100000 nM | TGI (SN12C renal): > 100000 nM | TGI (SNB-19 CNS): > 100000 nM | TGI (SNB-75 CNS): > 100000 nM | TGI (SW-620 colon): > 100000 nM | TGI (T-47D breast): > 100000 nM | TGI (TK-10 renal): > 100000 nM | TGI (U251 CNS): > 100000 nM | TGI (UACC-257 melanoma): > 100000 nM | TGI (UACC-62 melanoma): > 100000 nM | TGI (UO-31 renal): > 100000 nM

N#Cc1c(-c2ccc(Cl)cc2)c2c(N=Nc3c(O)ccc4ccccc34)[nH]nc2[nH]c1=O
TGI (786-0 renal): 2040 nM | TGI (A498 renal): 468 nM | TGI (A549 NSCLC): 2300 nM | TGI (ACHN renal): 492 nM | TGI (BT-549 breast): 619 nM | TGI (CAKI-1 renal): 1260 nM | TGI (COLO 205 colon): 2660 nM | TGI (DU-145 prostate): 1070 nM | TGI (EKVX NSCLC): 2190 nM | TGI (HCC-2998 colon): 890 nM | TGI (HCT-116 colon): 1620 nM | TGI (HCT-15 colon): 2090 nM | TGI (HOP-62 NSCLC): 1820 nM | TGI (HOP-92 NSCLC): 865 nM | TGI (HS 578T breast): 3960 nM | TGI (HT29 colon): 1870 nM | TGI (IGROV1 ovarian): 1140 nM | TGI (K-562 leukemia): > 20700 nM | TGI (LOX IMVI melanoma): 439 nM | TGI (M14 melanoma): 563 nM | TGI (MALME-3M melanoma): 944 nM | TGI (MCF7 breast): 982 nM | TGI (MDA-MB-231 breast): 1080 nM | TGI (MDA-N): 2080 nM | TGI (MOLT-4 leukemia): 1340 nM | TGI (NCI-H226 lung): 1930 nM | TGI (NCI-H460 lung): 851 nM | TGI (NCI-H522 lung): 823 nM | TGI (NCI/ADR-RES ovarian): 777 nM | TGI (OVCAR-3 ovarian): 73.6 nM | TGI (OVCAR-4 ovarian): 3680 nM | TGI (OVCAR-5 ovarian): 2730 nM | TGI (OVCAR-8 ovarian): 1210 nM | TGI (PC-3 prostate): 2050 nM | TGI (RXF 393 renal): 878 nM | TGI (SF-268 CNS): 1660 nM | TGI (SF-295 CNS): 1180 nM | TGI (SF-539 CNS): 1370 nM | TGI (SK-MEL-2 melanoma): 943 nM | TGI (SK-MEL-5 melanoma): 1620 nM | TGI (SK-OV-3 ovarian): 1580 nM | TGI (SN12C renal): 2050 nM | TGI (SNB-19 CNS): 1910 nM | TGI (SW-620 colon): 2310 nM | TGI (TK-10 renal): 1800 nM | TGI (U251 CNS): 1560 nM | TGI (UACC-62 melanoma): 324 nM | TGI (UO-31 renal): 1050 nM
